Measured values taken from patent US20190358247A1 (The Medical College of Wisconsin, Inc., priority 2016, published 2019).
Several values for one entry are separate records, joined by “and”; a condition that tells them apart may be missing. Equal values may be shown once.

Legend:
MiaPaCa-2 cells [1] = assay: Intracellular uptake by LC-MS/MS
Experimental: Cells were grown on 10 cm dishes and treated with the compounds for 24 h in full media.
Next we investigated the relative uptake of different Mito-Met analogs (Mito-Met2, Mito-Met6, and Mito-Met10) and phenformin in MiaPaCa-2 cells (FIG. 12D). Cells were treated with respective Mito-Met analog (1 μM) for 1 h. Cells were lysed after washing and analyzed for Mito-Met analog by LC-MS.

mitochondrial complex I = mitochondrial complex I (Homo sapiens, UniProt O75251+O75306+P03886); assay: Complex I oxygen consumption (pyruvate/malate) in permeabilized cells, Seahorse XF96; type: cell-based; design: IC50, complex I oxygen consumption; other: permeabilized MiaPaCa-2, added acutely
Sequence of mitochondrial complex I (P03886 whole entry): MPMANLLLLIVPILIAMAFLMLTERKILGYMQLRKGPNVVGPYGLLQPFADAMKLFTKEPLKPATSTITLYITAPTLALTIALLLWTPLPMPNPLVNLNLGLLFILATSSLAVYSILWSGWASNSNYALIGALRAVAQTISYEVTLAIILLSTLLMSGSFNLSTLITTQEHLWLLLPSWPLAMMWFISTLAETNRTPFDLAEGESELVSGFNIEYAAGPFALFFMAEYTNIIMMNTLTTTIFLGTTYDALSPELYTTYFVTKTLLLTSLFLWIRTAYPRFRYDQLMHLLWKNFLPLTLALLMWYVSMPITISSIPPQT
Sequence of mitochondrial complex I (O75251 39-213): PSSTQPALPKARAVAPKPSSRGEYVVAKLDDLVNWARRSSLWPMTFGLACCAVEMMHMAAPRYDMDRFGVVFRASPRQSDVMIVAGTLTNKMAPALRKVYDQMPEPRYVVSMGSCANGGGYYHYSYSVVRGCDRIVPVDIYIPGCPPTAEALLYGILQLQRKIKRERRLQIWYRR
Sequence of mitochondrial complex I (P03897 whole entry, further chain): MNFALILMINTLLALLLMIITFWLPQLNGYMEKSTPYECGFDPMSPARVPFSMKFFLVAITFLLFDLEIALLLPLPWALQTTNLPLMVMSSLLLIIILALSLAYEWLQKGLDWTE
Sequence of mitochondrial complex I (O75306 34-463): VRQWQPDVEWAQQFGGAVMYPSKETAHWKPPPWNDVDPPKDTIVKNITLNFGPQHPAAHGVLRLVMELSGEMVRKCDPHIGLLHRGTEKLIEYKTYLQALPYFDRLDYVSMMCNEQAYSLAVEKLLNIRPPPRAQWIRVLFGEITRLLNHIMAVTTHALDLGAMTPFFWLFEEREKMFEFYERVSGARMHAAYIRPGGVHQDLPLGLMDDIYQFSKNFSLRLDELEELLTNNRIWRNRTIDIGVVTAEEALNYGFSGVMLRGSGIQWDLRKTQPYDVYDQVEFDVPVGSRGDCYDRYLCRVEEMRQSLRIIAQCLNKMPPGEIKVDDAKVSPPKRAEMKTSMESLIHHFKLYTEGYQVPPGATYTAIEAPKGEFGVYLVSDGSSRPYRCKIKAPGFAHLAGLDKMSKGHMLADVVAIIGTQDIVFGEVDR
Sequence of mitochondrial complex I (O75489 37-264, further chain): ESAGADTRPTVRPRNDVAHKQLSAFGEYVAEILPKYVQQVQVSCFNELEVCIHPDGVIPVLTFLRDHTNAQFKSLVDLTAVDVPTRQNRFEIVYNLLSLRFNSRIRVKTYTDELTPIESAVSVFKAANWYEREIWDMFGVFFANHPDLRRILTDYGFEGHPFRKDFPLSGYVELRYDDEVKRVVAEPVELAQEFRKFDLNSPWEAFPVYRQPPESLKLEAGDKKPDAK
Experimental: Respiratory enzyme activity in intact and permeabilized cells. The mitochondrial function in intact and permeabilized pancreatic cancer cells was measured using a Seahorse XF96 Extracellular Flux Analyzer (Seahorse Bioscience, North Billerica, Mass., USA). Unless specified otherwise, assays in intact cells were performed as previously described. Measurement of mitochondrial respiratory complexes in permeabilized cells was performed according to the manufacturer's instructions (Seahorse Bioscience). Briefly, intact cells were permeabilized using 1 nM Plasma Membrane Permeabilizer (PMP, Seahorse Bioscience) immediately before oxygen consumption rate (OCR) measurement by XF96. The oxygen consumption derived from mitochondrial complex I or complex II activity was measured by providing different substrates to mitochondria, e.g., pyruvate/malate for complex I and succinate for complex II activity. Rotenone, malonate and antimycin A were used as specific inhibitors of mitochondrial complex I, II and III activities, respectively.
The oxygen consumption rate was measured using the permeabilized MiaPaCa-2 cells in MAS buffer supplemented with pyruvate. The use of permeabilized cells avoids differences in cellular uptake of compounds. […] We tested the effect of pretreating cells with Mito-Met10 or Met using the permeabilized model. MiaPaCa-2 cells were treated with Met and Mito-Met10 for 24 h and the oxygen consumption studies were performed in these cells after permeabilization.

MiaPaCa-2 cells [2] = assay: Radiosensitization, clonogenic survival after X-radiation; type: cell-based, human
Experimental: MiaPaCa2 cells (1000 cells/well) were cultured in quadruplicate overnight in 96-well plates and changed to fresh medium.
Radiation experiments. […] The cells were then treated with X-radiation at a dose of 0, 2, 4, and 6 Gy. The control cells were treated with the same concentration of vehicle (0.1% DMSO) where appropriate. After irradiation, cells were suspended and seeded at various densities (100-8,000 cells per well) in 6-well plates for clonogenic assay as described above. The plates were kept within the incubator and media changed every 3-4 days for 2 weeks. Wells with 10-50 sufficiently large clones were chosen for calculating the cell survival fractions.
Effect of Mito-Met and Met on PDAC radiosensitivity. Both control cells and cells were pretreated for 24 h with 1 mM Met or Mito-Met (1 μM) prior to X-radiation. Cell survival was measured by a clonogenic assay.

MiaPaCa-2 cells [3] = assay: Three-dimensional spheroid growth in Matrigel; type: cell-based, human
Experimental: Three-dimensional spheroid cell cultures of PDAC. MiaPaCa-2 cells (5,000) were seeded in 96-well plates containing Matrigel (Corning), used as scaffold. This typical 3D-cell culture system allows spheroids to form within the matrix. […] At days 3, 7, and 14 the wells were observed by bright-field microscopy and images acquired on a Nikon Eclipse Ti inverted microscope (Nikon instrument Inc., NY, USA). Spheroid-forming cells were counted using the Nikon NIS Elements imaging software (Nikon). Data are expressed as mean and SD of number of spheroids.
We tested the antiproliferative effects of Mito-Met and Met in the multicellular spheroid model (FIG. 11A). MiaPaCa-2 cells were cultured for 14 days in Matrigel and treated with Mito-Met10 and Met.

[4] = Tissue accumulation in FC1242-luc orthotopic mice; type: in vivo; conditions: 1 mg/kg daily for two weeks; liver, kidney, spleen, tumor
Experimental: FIG. 19. Tissue accumulation of Mito-Met in in vivo FC1242-luc orthotopic mouse model. FC1242-luc orthotopic mice treated with Mito-Met10 (1 mg/kg) daily for 2 weeks. Tissue harvesting and extractions were performed 3 days after the last treatment. Quantitative data on concentrations of Mito-Met after normalization to tissue wet weight are represented as mean±SD, n=5.

MiaPaCa-2 cells [5] = assay: Sytox Green cytotoxicity assay; type: cell-based; conditions: 100 μM, 24 h
Experimental: Cytotoxicity assay. To determine the cytotoxicity of Mito-Met analogs and other TPP^+-conjugated to a long chain aliphatic hydrocarbon, we used the Sytox assay as described previously. MiaPaCa-2 cells were treated for 24 h, and dead cells were monitored in the presence of 200 nM Sytox Green (Invitrogen). The Sytox method labels the nuclei of dead cells yielding green fluorescence. Fluorescence intensities from the dead cells in 96-well plate were acquired in real time every 15 min after 4 h using a plate reader (BMG Labtech, Inc.) equipped with an atmosphere controller set at 37° C. and 5% CO2:95% air, using a fluorescence detection with 485 nm (excitation) and 535 nm (emission). To measure the total cell number, all of the samples in each treatment group were permeabilized by adding Triton X 100 (0.065%) in the presence of Sytox Green for 3 h, and maximal fluorescence intensities were taken as 100%. Data are represented as a percentage of dead cells after normalization to total cell number for each group.
Induction of cell death was monitored by Sytox Green staining, as shown previously. MiaPaCa-2 cells were treated with Mito-Met10 (100 μM), Mito-CP (100 μM), or Met (30 mM) and other controls for 24 h and cell death was measured in real time.

MCF-10A = assay: IncuCyte cell confluence assay, nonmalignant breast epithelial cells; type: cell-based
Experimental: (§1) IncuCyte Analyzer-real time measurement of cell proliferation. The cell proliferation was measured using a label-free, noninvasive cellular confluence assay by IncuCyte Live-Cell Imaging Systems (Essen Bioscience, Ann Arbor, Mich., USA; IncuCyte FLR). This system enables collection of live cell images at 2 h intervals over several days. The IncuCyte Analyzer provides real-time cellular confluence data based on segmentation of high-definition phase-contrast images. The cell proliferation is expressed as an increase in percentage of cell confluence.

MiaPaCa-2 cells [6] = assay: Clonogenic (colony formation) assay; type: cell-based, human
Experimental: Clonogenic assay. […] The plates were kept within the incubator and media changed every 3-4 days until the control cells formed sufficiently large clones. The cell survival fractions were calculated as previously described.
MiaPaCa-2 cells were treated with a range of concentrations as shown (FIG. 10C), and the number of colonies formed were counted.

MiaPaCa-2 cells [7] = assay: IncuCyte label-free cell confluence proliferation assay; type: cell-based, human; conditions: PDAC / MiaPaCa-2, from two independent cell growth assays
Experimental: Cell proliferation was measured using a label-free, non-invasive cellular confluence assay employing the IncuCyte™ Live-Cell Imaging Analyzer (Essen Bioscience). This system provides real-time cellular confluence data based on segmentation of high definition phase contrast images. […] MiaPaCa2 cells were treated with Met (1 and 2 mM) or Mito-Met-C10 (1-2 μM).
as §1

SMILES: Br.N=C(N)NC(=N)NCCCCCCCCCC[P+](c1ccccc1)(c1ccccc1)c1ccccc1 [Mito-Met10]
- difference in intracellular uptake and retention, MiaPaCa-2 and MCF-10A cells (MiaPaCa-2 cells [1]; LC-MS): four-fold
- cellular uptake relative to phenformin (MiaPaCa-2 cells [1]; MiaPaCa-2, LC-MS): ~100 fold
- concentration at which OCR was inhibited (mitochondrial complex I; permeabilized MiaPaCa-2, added acutely): 10 µM
- IC50 (mitochondrial complex I; read-out: IC50, complex I oxygen consumption, permeabilized MiaPaCa-2, compound added acutely (FIG. 20C)): 2000 nM
- radiosensitizing concentration, fold lower than Met (MiaPaCa-2 cells [2]; 1 μM versus Met 1 mM): 1,000 fold
- radiosensitization (MiaPaCa-2 cells [2]; 24 h pretreatment (1 mM Met, 1 μM Mito-Met) before X-radiation): as effective as 1 mM Met
- fold more effective than Met in inhibiting PDAC proliferation, 2D and 3D cell growth assays (MiaPaCa-2 cells [3]): 1,000- to 10,000 fold
- PDAC spheroid growth (MiaPaCa-2 cells [3]; 0.5 μM, 14 days): potently inhibited PPAC spheroid growth
- tissue accumulation [4]: increased accumulation
- cell death, Sytox Green staining (MiaPaCa-2 cells [5]): no detectable cell death
- effect on cell confluence (MCF-10A): not significantly affected
- colony formation (MiaPaCa-2 cells [6]; 3 μM, 24 h): Almost no colony formation
- IC50 (MiaPaCa-2 cells [6]; read-out: IC50, colony formation / survival fraction, MiaPaCa-2, 24 h treatment): 1100 nM
- fold more effective than metformin in inhibiting cell proliferation (MiaPaCa-2 cells [7]): ~1,000 fold and > 1,000 fold
- fold more effective than metformin in inhibiting cell proliferation (MiaPaCa-2 cells [7]; listed as mito-met-C10): ~1,000 fold
